17 molecules from PubChem BioAssay (NCI) can be followed below.

SMILES strings stand for the structures. Where “and” joins values, the source holds several entries; their conditions need not be identical. Identical values can stand only once.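 Dose response: 5 concentrations. Exposure: 48 h. Format: 96-well plates. Endpoint: linear interpolation; highest concentration if not reached. GI50 = concentration required for 50% inhibition of growth. TGI is the concentration that stops growth completely.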

Some test systems named below: M19-MEL melanoma; DMS 273 small cell lung; DMS 114 small cell lung; XF 498 CNS; MDA-N; RXF-631 renal; HOP-18 NSCLC; DLD-1 colon; T-47D breast; P388 leukemia; SN12K1 renal.
What all share (assay): NCI tumour cell line growth inhibition, 48 h

Regarding `CCN(CC)CC.CCOc1ccc(NC(=O)N=C=[N-])cc1.[CH-]1CCCCC1.[CH-]1CCCCC1.[CH-]1CCCCC1.[Cl-].[Sn+4]`, the GI50 is 0.0208 µM with M19-MEL melanoma; 0.0185 µM in the experiment with DMS 273 small cell lung; 0.0214 µM with DMS 114 small cell lung; 0.0335 µM in the experiment on XF 498 CNS; 0.0205 µM with MDA-N; 0.0202 µM with RXF-631 renal. The values for the GI50 in the experiment with HOP-18 NSCLC and in the experiment on DLD-1 colon were 0.0135 µM and 0.018 µM, respectively. Besides, the TGI in the experiment with M19-MEL melanoma came to 0.0513 µM; with DMS 273 small cell lung, 0.0482 µM; in the experiment on DMS 114 small cell lung it was 0.0594 µM; in the experiment on XF 498 CNS, 0.103 µM; in the experiment with MDA-N, 0.0471 µM; in the experiment with RXF-631 renal, 0.0648 µM. The TGI with HOP-18 NSCLC was 0.0376 µM; in the experiment with DLD-1 colon it was 0.0478 µM.
As to `CC(C)N(C(=O)C1(C)CC1)C(C)C`, the TGI in the experiment on M19-MEL melanoma, in the experiment on DMS 273 small cell lung, with DMS 114 small cell lung, in the experiment with XF 498 CNS, in the experiment on RXF-631 renal and in the experiment with HOP-18 NSCLC was greater than 100 µM throughout. In the experiment on DLD-1 colon, the TGI is greater than 100 µM.
Consider `CCCCCCCCCCCCCCCCOCC(CN(C)CCN(C)C)OCCCCCCCCCCCCCCCC` (stereo not drawn), for which the TGI in the experiment on M19-MEL melanoma, with DMS 273 small cell lung, in the experiment with DMS 114 small cell lung, in the experiment on RXF-631 renal, with HOP-18 NSCLC and with DLD-1 colon was greater than 100 µM each time.
Consider `N#CC(/C(=N\NC(=O)c1ccncc1)C(=O)Nc1ccc([N+](=O)[O-])cc1[N+](=O)[O-])c1nc(-c2ccc(Br)cc2)cs1` (stereo not drawn), for which the TGI in the experiment with M19-MEL melanoma, in the experiment with DMS 114 small cell lung, in the experiment on RXF-631 renal and in the experiment on DLD-1 colon was greater than 100 µM each time.
For `C=CCCCn1ccc2ccccc21`, the TGI in the experiment with M19-MEL melanoma, in the experiment on DMS 114 small cell lung, in the experiment with XF 498 CNS, with RXF-631 renal, in the experiment on HOP-18 NSCLC and with DLD-1 colon was greater than 100 µM throughout.
With `Nc1nc(Cl)cc(NCCCCCNc2cc(Cl)nc(N)n2)n1`, the TGI in the experiment on DMS 273 small cell lung, in the experiment on RXF-631 renal, in the experiment on HOP-18 NSCLC and in the experiment with DLD-1 colon was greater than 100 µM throughout.
`C[C@H](N)C(=O)N[C@@H]1[C@H]2C(=C(O)C[C@@H](O)[C@@H]2O)C(=O)O[C@]1(C)C(Cl)Cl`: the TGI is 1.22 µM and 2.62 µM in the experiment on M19-MEL melanoma; 1.57 µM and 1.44 µM with DMS 273 small cell lung; 0.98 µM and 1.28 µM in the experiment with DMS 114 small cell lung; 1.05 µM and 0.31 µM in the experiment with XF 498 CNS; 7.69 µM and 4.18 µM in the experiment on T-47D breast; 1.93 µM with RXF-631 renal. Also, the TGI in the experiment on P388 leukemia is 0.453 µM; in the experiment with SN12K1 renal it was 1.58 µM; in the experiment on HOP-18 NSCLC, 4.39 µM and 2.76 µM; in the experiment on DLD-1 colon, 1.62 µM and 2.43 µM. Also, the GI50 in the experiment on DMS 273 small cell lung was 0.279 µM; in the experiment on XF 498 CNS, 0.211 µM; with MDA-N, 0.438 µM; in the experiment with T-47D breast it was 0.8 µM; in the experiment with HOP-18 NSCLC it was 0.375 µM; in the experiment on DLD-1 colon it was 0.185 µM.
In the case of `CC1=C(C(=O)Nc2ccccc2)C(c2ccc([N+](=O)[O-])cc2)C(C(=O)Nc2ccccc2)=C(C)N1`, the TGI with M19-MEL melanoma was 32.1 µM; with DMS 273 small cell lung, 72.4 µM; in the experiment on DMS 114 small cell lung, 52.1 µM; with XF 498 CNS, 49.2 µM; in the experiment with RXF-631 renal, greater than 100 µM; in the experiment on DLD-1 colon, greater than 100 µM.
Consider `CCOC(=O)Cc1nc2ccccc2s1`, for which the TGI in the experiment with M19-MEL melanoma amounted to 40.6 µM; in the experiment on DMS 273 small cell lung, 55.4 µM; in the experiment on XF 498 CNS, 28 µM; in the experiment on RXF-631 renal, 33.8 µM; with HOP-18 NSCLC it was 74.3 µM; in the experiment with DLD-1 colon it was 33.5 µM.
On to `COc1cccc(NC(=O)C(C)(C)C)c1C=O`, for which the TGI was greater than 100 µM in the experiment with M19-MEL melanoma; greater than 100 µM with DMS 114 small cell lung; 85.4 µM with XF 498 CNS; greater than 100 µM in the experiment with RXF-631 renal; greater than 100 µM in the experiment on HOP-18 NSCLC; greater than 100 µM in the experiment on DLD-1 colon.
In the case of `CN(C)c1ncnc2c1Cc1ccccc1C(=O)N2C`, the TGI in the experiment with M19-MEL melanoma, in the experiment on DMS 273 small cell lung, in the experiment on DMS 114 small cell lung, with XF 498 CNS, with RXF-631 renal and in the experiment on HOP-18 NSCLC was greater than 100 µM throughout. This molecule also registered a TGI in the experiment with DLD-1 colon greater than 100 µM.
Take `CC(/C=C/C(=O)c1sc(-n2nc(-c3ccccc3)cc2-c2ccccc2)nc1C)=C\c1ccccc1`: the TGI in the experiment with M19-MEL melanoma, with DMS 273 small cell lung, in the experiment on DMS 114 small cell lung, in the experiment on RXF-631 renal and with DLD-1 colon was greater than 100 µM throughout. In addition, the GI50 with DMS 273 small cell lung was greater than 100 µM.
For the molecule `CCSC(SCC)c1cc2c(cc1Br)OCO2`, the TGI was greater than 100 µM in the experiment on M19-MEL melanoma; 20.1 µM with DMS 273 small cell lung; 50.4 µM in the experiment on DMS 114 small cell lung; 59.4 µM with XF 498 CNS; 73.7 µM with RXF-631 renal; greater than 100 µM with DLD-1 colon.
On to `CC1CN(c2ccc(Cl)cc2)CC(C)(C)OC(=O)O1` (stereo not drawn), for which the TGI with M19-MEL melanoma, in the experiment on DMS 273 small cell lung, in the experiment with DMS 114 small cell lung, with XF 498 CNS, in the experiment with RXF-631 renal and in the experiment on DLD-1 colon was greater than 100 µM each time.
For the molecule `O=C1Nc2cc(Cl)ccc2N=CC1NC(=O)C(c1ccccc1)c1ccccc1Cl` (stereo not drawn), the TGI in the experiment with M19-MEL melanoma, in the experiment on DMS 273 small cell lung, with DMS 114 small cell lung, in the experiment on RXF-631 renal, in the experiment on HOP-18 NSCLC and in the experiment on DLD-1 colon was greater than 100 µM throughout.
For `CC1=C(C(=O)Nc2ccccc2C)C(c2ccc(C3C(C(=O)Nc4ccccc4C)=C(C)NC(C)=C3C(=O)Nc3ccccc3C)cc2)C(C(=O)Nc2ccccc2C)=C(C)N1`, the TGI turned out to be 12.3 µM with M19-MEL melanoma; 11.4 µM in the experiment with DMS 273 small cell lung; 14 µM in the experiment with DMS 114 small cell lung; 35.6 µM in the experiment with XF 498 CNS; 19.9 µM in the experiment with MDA-N; 20.5 µM with T-47D breast. Further, the TGI worked out at 28.4 µM in the experiment with RXF-631 renal and 5.66 µM in the experiment with DLD-1 colon.
`COc1ccc2c(c1O)C(=O)C(CCC(=O)O)CC2` (stereo not drawn): the TGI in the experiment on M19-MEL melanoma, with DMS 273 small cell lung, with DMS 114 small cell lung, in the experiment with XF 498 CNS, with RXF-631 renal and with HOP-18 NSCLC was greater than 100 µM in each case. The molecule further returned a TGI in the experiment on DLD-1 colon greater than 100 µM.
